Laboratory results from publication PMC9272937, “Anti-breast cancer sinomenine derivatives via mechanisms of apoptosis induction and metastasis reduction” (Journal of Enzyme Inhibition and Medicinal Chemistry, 2022).

Experiments:
[1] = tested on: human lung cancer cell line A549; test: CCK-8 antiproliferative assay, A549; assay type: cell-based; settings: Homo sapiens, A549; CCK-8, 48 h, mean ± SD of three experiments
Description: (§1) The antiproliferative activities of target compounds were examined by CCK-8 assay in three cancer cells (human lung cancer cell line A549, human mammary gland tumour cell line MCF-7 and human TNBC cell line MDA-MB-231) and one normal cell (human normal breast cell line MCF10A). All cell lines were sourced from KeyGEN Biotech, […], China, and a standard DMEM medium was applied to all cell cultures then subjected to 24 h incubation at 37 °C in a humidified environment with 5% CO2. After that logarithmic growing cells were plated on 96-well plates with 8,000 cells per well in a […] medium for 24 h incubation at 37 °C with 5% CO2. The DMEM medium with bovine serum was removed from each well. Then, prerequisite target compounds and positive controls were added to different cell lines in a predetermined concentration regiment for 48 h culture.

[2] = tested on: human mammary gland tumour cell line MCF-7; test: CCK-8 antiproliferative assay, MCF-7; assay type: cell-based; settings: for IC50: Homo sapiens, MCF7, 48 h, read-out: IC50 MCF-7; for SI MCF-7 (selectivity index): SI = IC50(MCF-10A)/IC50(MCF-7)
Description: as §1

[3] = tested on: human TNBC cell line MDA-MB-231; test: CCK-8 antiproliferative assay, MDA-MB-231; assay type: cell-based; settings: for IC50: Homo sapiens, MDA-MB-231, 48 h, read-out: IC50 MDA-MB-231; for SI MDA-MB-231 (selectivity index): SI = IC50(MCF-10A)/IC50(MDA-MB-231)
Description: as §1

[4] = tested on: human normal breast cell line MCF10A; test: CCK-8 assay, normal cells MCF10A; assay type: cell-based; settings: MCF-10A, CCK-8, 48 h, mean ± SD of three experiments
Description: as §1

[5] = Griess assay, NO-releasing capacity; settings: 10^−4 mol/l compound, L-cysteine, 37 °C; for NO peak releasing: 15-180 min
Description: The NO-releasing capacity of each target compound was determined by the colorimetric method under the instructions of the manufacturer. Preparation of standard curves of 0, 1.56, 3.13, 6.25, 12.5, 25, 50 and 100 μmol/L nitrite nitrogen series standard solution was prepared. 50 μL to 96-well plate was added respectively and then mixed with 50 μL Griess I and Griess II; the absorption value was measured at 540 nm wavelength. A standard curve was drawn from the obtained data. Compounds were formulated into 10^−4 mol/l with PBS (pH = 7.4) and pharmaceutical DMSO. The newly formulated L-cysteine solution 100 μL ([…]) was added and incubated at 37 °C for 15, 30, 45, 60, 90, 120, 150 and180 min, respectively. Griess I and II recovered to room temperature, 50 μL of compounds 7A–E(a–c) were added respectively into the 96-well plate, and then 50 μL of Griess I and 50 μL of Griess II were added in sequence, with the absorbance tested at 540 nm. The amount of NO released was then calculated according to the standard curve.

MDA-MB-231 cells [6] = test: Cell cycle analysis (PI staining, flow cytometry); assay type: cell-based, human; settings: 72 h; for share of S phase in cell cycle: control 45.39%
Description: This assay was conducted on 6-well plates with 200,000 MDA-MB-231 cells per well and incubated for 24 h at 37 °C with 5% CO2, then the medium from each well was removed and treated by 7Cc in different concentrations (0, 0.41, 0.82, 1.64 μM) for additional 72 h incubation. The desired cell suspension was acquired after attached cells were digested then collected and washed in terms. Cell suspension was then subjected to fixation via 70% ethanol and washed with phosphate-buffered solution (PBS), incubated with 100 μL Rnase A, and placed on water bathed for half an hour at 37 °C. For the final step, 400 μL PI was applied to the mixture in a dark environment at 4 °C for 30 min. Then the distribution of DNA content was measured by flow cytometry (FACS Calibur Becton-Dickinson, Franklin Lake, NJ).

MDA-MB-231 cells [7] = test: Cell apoptosis assay (annexin V-FITC/PI, flow cytometry); assay type: cell-based, human; settings: 72 h, negative control 5.98%
Description: This assay was performed on 6-well plates with 200,000 MDA-MB-231 cells per well and incubated for 24 h at 37 °C with 5% CO2, then the medium from each well was removed and treated by 7Cc in different concentrations (0, 0.41, 0.82, 1.64 μM) for additional 72 h incubation. Subsequently, 500 μL of binding buffer was applied to suspend and collect compound treated cells. Then, 5 μL of both annexin V-fluorescein isothiocyanate (Annexin V-FITC) and propidium iodide (PI) was applied to the mixture and this reaction was placed under total dark at room temperature for 10 min. Cell apoptosis was examined by flow cytometry.

MDA-MB-231 cells [8] = test: Mitochondrial membrane potential assay (JC-1, flow cytometry); assay type: cell-based, human; settings: 48 h, control 3.67%
Description: Briefly, MDA-MB-231 cells in logarithmic growth were placed in 6-well plates with 200,000 cells per well for 24 h before a medium remove and then incubated with 7Cc at predetermined concentrations (0, 0.41, 0.82, 1.64 μM) for 48 h. Cells were collected after and washed with PBS. JC-1 dye was added to cells for staining under total dark conditions according to the manufacturer's instructions (KGA601, KeyGEN Biotech, Nanjing, China). The percentage of cells with collapsed mitochondrial membrane potentials was detected by flow cytometry.

MDA-MB-231 cells [9] = test: Wound healing assay; assay type: cell-based, human; settings: 0.41, 0.82, 1.64 μM, 24 h
Description: In this assay, 6-well plates with 200,000 cells per well were used for the culture of MDA-MB-231 cells at 37 °C for 24 h and the medium of each well was removed. Then, 7Cc at predetermined concentrations (0, 0.41, 0.82, 1.64 μM) was added to the cell culture for incubation. After that, sterile pipette tips were utilised to scratch cell culture in 6-well plates in an even fashion, and detached cells were washed away by PBS with culture medium replaced anew afterward. After 24 h of additional incubation, cell cultures were photographed and migration distance examined accurately.

MDA-MB-231 cells [10] = test: Transwell assay; assay type: cell-based, human; settings: 0.41, 0.82, 1.64 μM, 24 h, concentration-dependent
Description: Then, cells attached to the upper surface of the membrane were removed while migrated or invaded cells of the lower membrane surface were added 0.1% crystal violet staining for 30 min. Then, migrated or invaded cells of the lower chamber were photographed and counted.

MDA-MB-231 cells [11] = test: Adhesion assay; assay type: cell-based, human; settings: 0.41, 0.82, 1.64 μM, 72 h, dose-dependent
Description: MDA-MB-231 cells were incubated in different plates and then treated with 7Cc in different concentrations (0, 0.41, 0.82, 1.64 μM) for 72 h. After that, the CAM ([…]) stain treated serum-free medium was applied and 96-well plates were seeded with 100 μL already prepared cell suspension at 2,000 cells per good concentration for an hour. Then, plates were washed by PBS, fixed via 3.7% formaldehyde, another PBS wash, and photographed by fluorescence microscope.

MDA-MB-231 cells [12] = test: Comet assay (DNA damage); assay type: cell-based, human; settings: 0.41, 0.82, 1.64 μM, 72 h, MDA-MB-231, neutral comet assay
Description: All DNA damage sustained in this assay was measured via Comet Assay Kit (Keygen, Nanjing, China) according to the manufacturer’s instructions. 7Cc was added to MDA-MB-231 cells at predetermined concentrations (0, 0.41, 0.82, 1.64 μM) for 72 h. These cells were then collected and fixed on CometSlide at 4 °C for 15 min. After that, the cells were set under lysis solution at 4 °C for 90 min and these slides were electrophoresed for 20 min, fixed in ethanol for 5 min, and then stained with Vista Green DNA Dye. The final results were acquired by a fluorescence microscope.

Structure (SMILES) | IC50 [1] [µM] | IC50 [2] [µM] | SI MCF-7 (selectivity index) [2] | IC50 [3] [µM] | SI MDA-MB-231 (selectivity index) [3] | IC50 [4] [µM] | NO peak releasing [5] | also measured
COC1=CC2[C@H]3Cc4ccc(OC)c(OC(=O)c5ccccc5C(=O)OCCCCOc5no[n+]([O-])c5S(=O)(=O)c5ccccc5)c4[C@@]2(CCN3C)CC1=O (stereo partly drawn) [7Cc, 4–(4-((2-((((4bs,9R)-3,7-Dimethoxy-11-methyl-6-oxo-6,8a,9,10-tetrahydro-5H-9,4b-(epiminoethano)phenanthren-4-yl)oxy)carbonyl)benzoyl)oxy)butoxy)-3-(phenylsulfonyl)-1,2,5-oxadiazole 2-oxide] | 1.94 ± 0.05 | 1.75 ± 0.15 | 15.73 | 0.82 ± 0.02 | 33.57 | 27.5 ± 2.34 | – | time at which top volume of NO released was reached [5]: 90 min; NO release at 180 min ([5]; 180 min): 39.27 µmol/L; share of S phase in cell cycle (MDA-MB-231 cells [6]; 0.41 μM): 49.10%; share of S phase in cell cycle (MDA-MB-231 cells [6]; 0.82 μM): 57.27%; share of G2 phase in cell cycle (MDA-MB-231 cells [6]; 1.64 μM, control 10.09%): 5.76%; share of G1 phase in cell cycle (MDA-MB-231 cells [6]; 1.64 μM, control 44.52%): 30.09%; share of S phase in cell cycle (MDA-MB-231 cells [6]; 1.64 μM): 64.15%; apoptotic portions of cells (two quadrants from the right side) (MDA-MB-231 cells [7]; 0.41 μM): 16.66%; apoptotic portions of cells (two quadrants from the right side) (MDA-MB-231 cells [7]; 0.82 μM): 26.62%; apoptotic portions of cells (two quadrants from the right side) (MDA-MB-231 cells [7]; 1.64 μM): 53.28%; percentage of cells with collapsed mitochondrial membrane potential (JC-1) (MDA-MB-231 cells [8]; 0.41 μM): 16.40%; percentage of cells with collapsed mitochondrial membrane potential (JC-1) (MDA-MB-231 cells [8]; 0.82 μM): 31.01%; percentage of cells with collapsed mitochondrial membrane potential (JC-1) (MDA-MB-231 cells [8]; 1.64 μM): 49.98%; migration (wound closure) (MDA-MB-231 cells [9]): inhibited migration; invasion (cells permeated through transwell membrane) (MDA-MB-231 cells [10]): notably reduced the number of cells permeated through the membrane; cellular adhesion (MDA-MB-231 cells [11]): clear prevention of TNBC cellular adhesion; DNA damage (double-strand DNA breaks, comet tail) (MDA-MB-231 cells [12]): significant presence of endogenous DSBs was observed
COC1=CC2[C@H]3Cc4ccc(OC)c(OC(=O)CCC(=O)OCCCCCOc5no[n+]([O-])c5S(=O)(=O)c5ccccc5)c4[C@@]2(CCN3C)CC1=O (stereo partly drawn) [7Da, 4-((5-((4-(((4bs,9R)-3,7-Dimethoxy-11-methyl-6-oxo-6,8a,9,10-tetrahydro-5H-9,4b-(epiminoethano)phenanthren-4-yl)oxy)-4-oxobutanoyl)oxy)pentyl)oxy)-3-(phenylsulfonyl)-1,2,5-oxadiazole 2-oxide] | 2.79 ± 0.07 | 1.8 ± 0.11 | 13.74 | 0.92 ± 0.01 | 26.89 | 24.7 ± 1.67 | exceeding 40 μmol/L | –
COC1=CC2[C@H]3Cc4ccc(OC)c(OC(=O)c5ccccc5C(=O)OCCCCCOc5no[n+]([O-])c5S(=O)(=O)c5ccccc5)c4[C@@]2(CCN3C)CC1=O (stereo partly drawn) [7Dc, 4-((5-((2-((((4bs,9R)-3,7-Dimethoxy-11-methyl-6-oxo-6,8a,9,10-tetrahydro-5H-9,4b-(epiminoethano)phenanthren-4-yl)oxy)carbonyl)benzoyl)oxy)pentyl)oxy)-3-(phenylsulfonyl)-1,2,5-oxadiazole 2-oxide] | 1.63 ± 0.05 | 2.18 ± 0.1 | 9.11 | 1.88 ± 0.09 | 10.56 | 19.9 ± 1.43 | exceeding 40 μmol/L | –
